We go through seven molecules from patent US20050124618A1, “Methods of modulating angiogenesis and cancer cell proliferation” (priority 2003, published 2005).

“Also recorded” adds a separate entry of the source.

The subject of experiment [1] is rat cornea. The experiment in a line: Rat cornea pocket angiogenesis assay (growth factor pellets). The format is in vivo. The following applies: for angiogenic response to growth factor alone: 250 ng growth factor per pellet. The method, then: (i) Preparation of sustained-release polymer: Sustained-release polymer pellets were prepared by making a 1:1 mix of a 12% solution in ethanol of the polymer (Hydron polyhydroxyethylmethacrylate), with saline containing the growth factors. The growth factors bFGF, VEGF, and EGF were dissolved at a concentration of 125 ng/μl. […] 2 μl of these solutions were added to each pellet. Thus, a pellet containing 250 ng of a single growth factor was implanted at random in the right or left eye. The other eye was implanted with a pellet containing the same dose of growth factor+HET0016. In some rats the pellet contained VEGF alone and VEGF+DDMS. 20 μg of the stable 20-HETE agonist analog WIT003 was implanted in one eye to determine whether it induces angiogenesis. […] 9 μl of the 1:1 Hydron/treatment mixture was placed on the ends of 1.5-cm rods. Each pellet contained 250 ng of its respective growth factor. For bFGF we used sucralfate to stabilize and allow sustained release of this growth factor (Volkin D B et al., Biochim Biophys Acta 1993, 1203:18-26). After drying the pellets for 1 hour, they were ready to be implanted into the cornea of rats.
(ii) Pellet implantation: The rats were anesthetized IM with ketamine (80 mg/kg) and xylazine (10 mg/kg). The eyes were topically anesthetized with 0.5% proparacaine (Ophthetic, Alcon, Tex.) and the globes proptosed with a jeweler's forceps. Using an operating microscope, a central intrastromal linear keratotomy, approximately 1.5 mm in length, was performed with a surgical blade (Bard-Parker #11; Becton Dickinson, Franklin Lake, N.Y.) parallel to the insertion of the lateral rectus muscle. A curved iris spatula (No. 10093-13, Fine Science Tools, Belmont, Calif.) approximately 1.5 mm wide and 5 mm long was inserted under the lip of the incision and gently pushed through the stroma toward the temporal limbus of the eye. The distance between the limbus and the base of the pocket was kept at 1.0±0.1 mm. The pellet was advanced to the temporal end of the pocket. Antibiotic ointment (erythromycin) was applied to the anterior surface of the eye.
(iv) Quantitation of corneal neovascularization: Seven days after pellet implantation, the rats were deeply anesthetized as previously described with ketamine and xylazine. The left ventricle was cannulated and the animal was perfused with 20-25 ml saline through the left ventricle followed by 20-25 ml India ink (waterproof drawing ink, Sanford, Bellwood, Ill.). The eyes were marked for orientation, enucleated and placed in 4% formalin for 24 hours. The cornea was dissected free from the surrounding globe and underlying iris, bisected, and loosely mounted between two glass slides, thus gently flattening the cornea. These flat mounts were examined microscopically using a Nikon Diaphot Epi-fluor 2 microscope attached to a CCD video camera and the images were digitized and saved using a computer.
Neovascularization was determined by comparing total vessel length in the control and experimental eyes. Vessel length was determined by tracing each vessel from the limbus to the pellet. Total length is the sum of these values in pixels and was determined using conventional image analysis software (Sigma Scan Pro, SPSS, Chicago, Ill.)

The test system of experiment [2] is U251 human glioma cells. As to the kind of experiment: U251 cell proliferation assay (cell counting). The format is cell-based. The following applies: for increase of U251 cell proliferation: 1 μM agonist, 48 hr, serum-starved. The method, then:
Culture Conditions: Cells were routinely maintained in DMEM (Invitrogen) supplemented with 10% heat-inactivated fetal bovine serum (FBS), penicillin (10 IU/ml), streptomycin (10 μg/ml) and 10% non-essential amino acids (all purchased from Invitrogen). Cells were maintained at 37° C. in a humidified incubator containing 5% CO2. They were grown in medium containing 10% FBS, which was then replaced with serum-free medium where U251 cells grow exponentially. Treatments were initiated one day after serum removal.
Cell Proliferation Assays: Proliferation studies were performed with cultures plated at a density that ensured exponential growth for at least 5 days. Growth medium was generally replaced by serum-free medium 24 hr after plating. Cells were treated with various concentrations of a given compounds for 24 or 48 hr as described in the Methods. […] Organic solvent never exceeded 0.1% of total culture volume. Cells were harvested by exposure to 0.05% trypsin/EDTA and counted using a hemocytometer.

Experiment [3] concerns HUVECs. The experiment in a line: HUVECs proliferation assay (CellTiter96 AQueous One). It is filed as cell-based, human. The protocol:
HUVECs were seeded onto a 96-well plate at 1×10^4 cells/well. […] Organic solvent concentration never exceeded 0.1% of total culture volume. […] 20 μl of Aqueous One reagent was added to the 100 μl medium in each well. The plates were incubated for 2 hours at 37° C. in a humidified incubator. Absorbance was recorded at 490 nm using a 96-well Bio Kinetics Reader EL340 (Bio-TEK, Winooski, Vt.). The data represent changes in percent absorbance of treated cultures compared with control cells. Three different experiments were carried out, and each point was determined in triplicate.

Experiment [4] deals with 20-HETE. The following applies: cited from earlier work.
The test system of experiment [5] is 9L rat gliosarcoma cells. The experiment in a line: 9L cell proliferation assay (cell counting). The format is cell-based. The method, then:
Culture Conditions: 9L rat gliosarcoma cells were purchased from ATC (Gaithersburg, Md.) and were maintained in DMEM (Invitrogen) supplemented with 10% heat-inactivated fetal bovine serum (FBS), penicillin (10 IU/ml), streptomycin (10 μg/ml) and 10% non-essential amino acids (all purchased from Invitrogen). Cells were maintained at 37° C. in a humidified incubator containing 5% CO2. They were grown in medium containing 10% FBS, which was then replaced with serum-free medium (give type and source) where 9L cells grow exponentially.
Cell Proliferation Assays: Proliferation studies were performed with cultures plated at a density that ensured exponential growth for at least 5 days. Growth medium were generally replaced by serum free medium 24 hr after plating. […] The concentration of the ethanol added to the media never exceeded 0.1%. Cells were harvested by exposure to a solution of 0.05% Trypsin/EDTA and counted using a hemocytometer.

The mark [6] stands for this setting: up to 40 μg palmitic acid per pellet.

Regarding “bFGF: basic fibroblast growth factor, purchased from R&D Systems”, the “angiogenic response to growth factor alone” value in experiment [1] is “Vigorous angiogenic responses”.
Consider `O=C(O)CCC/C=C\CCCCCCC/C=C\CCCCCO` [20-hydroxyeicosa-5(Z),14(Z)-dienoic acid], for which the “reversal of HET0016 blockade of U251 cell proliferation” value in experiment [2] (1 μM 20-HETE agonist + HET0016) is on record as “about 70%”. The “increase of U251 cell proliferation” value in experiment [2] was “about 20%”.
As for VEGF, the “effect on proliferation of HUVECs” value in experiment [3] (250 ng/ml VEGF alone) is “stimulated proliferation”. The “angiogenic response to growth factor alone” value in experiment [1] is on record as “marked neovascularization response; also recorded: Vigorous angiogenic responses”.
Regarding `C#CCCCCCCCCCCCCCCCC(=O)O` [17-ODYA, 17-Octadecynoic acid], the “ability to reduce 20-HETE levels in vivo” value in experiment [4] was “reduce 20-HETE levels in vivo”.
For the molecule “EGF: epidermal growth factor, positive control for proliferation”, the “angiogenic response to growth factor alone” value in experiment [1] is “Vigorous angiogenic responses”. The “increase of proliferation of 9L cells” value in experiment [5] (EGF 200 ng/ml) is on record as “about 30%”. For the same molecule, the “effect on number of 9L cells” value in experiment [5] (EGF 200 ng/ml, 24 and 48 hrs) was “increased the number of cells”.
Turning to `CCCCCCCCCCCCCCCC(=O)O` [palmitic acid], in experiment [1] (setting [6]), the “angiogenic effect of fatty acid control alone” value was “had no effect by itself” and the “influence of fatty acid control on angiogenic responses to VEGF” value is on record as “no difference in angiogenic responses to VEGF”. In experiment [1] (up to 40 μg palmitic acid per pellet, listed as Palmitic acid), the “influence of fatty acid control on angiogenic responses to VEGF” value was “showed no ability to influence angiogenic responses to VEGF”.
Turning to `O=C(O)CCCC/C=C\CCCCCCC/C=C\CCCCO` [WIT003, 20-hydroxyeicosa-6(Z),15(Z)-dienoic acid], the “effect on proliferation of HUVECs” value in experiment [3] (1 μM WIT003, 48 hours) is “increased the proliferation rate; also recorded: increased proliferation of the cells”. Moreover, the “angiogenic response to the 20-HETE analog alone” value in experiment [1] (20 μg WIT003 per pellet, 7 days) was “induced an angiogenic response”. Further, in experiment [2] (0.1 μM WIT003, 48 hr), the “stimulatory effect on proliferation of U251 cells” value is reported as “has no more stimulatory effect on proliferation of U251 cells than 50 ng/ml EGF”. Further, the “rescue of U251 cells from the anti-proliferative effects of HET0016” value in experiment [2] (1 μM WIT003 + 10 μM HET0016, 48 h) is recorded as “reverses the effects of HET0016; also recorded: can rescue”. In addition, the “U251 proliferation with WIT003 and HET0016, increase above HET0016 alone” value in experiment [2] (1 μM WIT003 + 10 μM HET0016, 2 days) is on record as “about 70%”. The “U251 growth stimulation compared with EGF” value in experiment [2] (1 μM WIT003, 48 h) was “comparable to the growth stimulating effect induced by 200 ng/ml EGF; also recorded: as much as 200 ng/ml EGF”. Also, in experiment [2], the “increase of U251 cell proliferation” value is on record as 20%. For the same molecule, the “stimulation of 9L proliferation compared with EGF” value in experiment [5] (1 μM WIT003) is listed as “A similar degree of stimulation”. The “rescue of 9L cells from the inhibitory actions of HET0016” value in experiment [5] (1 μM WIT003 + 10 μM HET0016) is listed as “partially rescued”.
